What is called inhibition is the relative decrease from the control value, in per cent. A higher inhibition goes with a response far below the control.

This note sets out measurements from EP4578856A1, “HETEROCYCLIC COMPOUND” (Ubience Inc., priority 2022, dated 2024).

The assay addresses ROCK2 protein (Homo sapiens, UniProt O75116). The experiment in a line: Degradation inducing activity of ROCK2 protein in HUVEC cells, Western blotting (Simple Western JESS). Type of assay: cell-based. The arrangement: endogenous in cells; host or cells: HUVEC (ATCC CRL-1730). To be noted: for inhibition at 1 µM / inhibition at 10 µM: HUVEC, 24 h; for ROCK2 protein degradation rate: 24 hours. In short, it runs like this:
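HUVEC cells treated 24 h with compound at 10 µM or 1 µM, then lysed; ROCK2 quantified by capillary Western (Simple Western JESS) using rabbit mAb D1B1, normalized to total loaded protein. Degradation rate (%) calculated relative to DMSO control set at 100%, binned A ≥75%, B 50–75%, C 25–50%, D <25%.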

Some results are limits rather than exact numbers.

ROCK2 protein, sequence (O75116 whole entry): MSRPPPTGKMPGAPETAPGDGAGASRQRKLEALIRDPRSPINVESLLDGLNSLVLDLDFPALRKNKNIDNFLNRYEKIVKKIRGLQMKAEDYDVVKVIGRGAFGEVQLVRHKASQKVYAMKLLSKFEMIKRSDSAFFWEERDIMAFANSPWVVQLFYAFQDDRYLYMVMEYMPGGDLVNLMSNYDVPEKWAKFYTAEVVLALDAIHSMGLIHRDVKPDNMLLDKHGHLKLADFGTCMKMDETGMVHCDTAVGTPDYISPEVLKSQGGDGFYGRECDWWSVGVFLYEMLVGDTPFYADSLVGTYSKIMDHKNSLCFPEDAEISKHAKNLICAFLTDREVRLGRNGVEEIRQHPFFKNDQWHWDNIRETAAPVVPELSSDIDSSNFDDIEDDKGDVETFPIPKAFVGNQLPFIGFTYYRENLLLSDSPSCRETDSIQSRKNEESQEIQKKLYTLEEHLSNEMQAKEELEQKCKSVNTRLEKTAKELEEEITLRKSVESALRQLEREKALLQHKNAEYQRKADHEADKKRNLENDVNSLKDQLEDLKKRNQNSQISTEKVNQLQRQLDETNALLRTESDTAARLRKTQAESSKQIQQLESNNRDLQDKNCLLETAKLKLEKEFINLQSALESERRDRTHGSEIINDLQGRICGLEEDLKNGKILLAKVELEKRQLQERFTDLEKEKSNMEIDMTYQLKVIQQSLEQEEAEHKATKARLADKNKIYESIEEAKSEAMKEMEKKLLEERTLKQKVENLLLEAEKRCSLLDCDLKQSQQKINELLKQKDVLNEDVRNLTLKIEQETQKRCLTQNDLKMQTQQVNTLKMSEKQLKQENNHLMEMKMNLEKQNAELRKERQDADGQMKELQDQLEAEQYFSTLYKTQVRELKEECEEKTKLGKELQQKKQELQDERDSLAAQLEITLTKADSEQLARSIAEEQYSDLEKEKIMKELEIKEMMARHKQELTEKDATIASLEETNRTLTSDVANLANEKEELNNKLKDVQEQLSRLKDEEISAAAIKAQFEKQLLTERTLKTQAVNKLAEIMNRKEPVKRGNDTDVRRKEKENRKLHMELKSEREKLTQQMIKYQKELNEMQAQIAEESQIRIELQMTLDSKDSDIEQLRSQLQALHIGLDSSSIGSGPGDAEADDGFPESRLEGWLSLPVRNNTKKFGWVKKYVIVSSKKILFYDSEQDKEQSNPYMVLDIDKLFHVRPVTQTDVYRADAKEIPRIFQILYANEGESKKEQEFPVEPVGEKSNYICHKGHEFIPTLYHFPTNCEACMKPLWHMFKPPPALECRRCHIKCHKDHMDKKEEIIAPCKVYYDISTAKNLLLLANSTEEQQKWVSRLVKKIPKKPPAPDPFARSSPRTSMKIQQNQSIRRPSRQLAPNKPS

`COC[C@H]1CN[C@H](C)CN1CC(=O)N1CC(C)(C)c2ncc(Cc3cccc(OCCOCCOCCN[C@H](Cc4cccc(F)c4)C(=O)Nc4ccc(-c5ccncc5)cc4)c3)cc21` [Example 51, (R)-3-(3-Fluorophenyl)-2-((2-(2-(2-(3-((1-(2-((2R,5R)-2-(methoxymethyl)-5-methylpiperazin-1-yl)acetyl)-3,3-dimethyl-2,3-dihydro-1H-pyrrolo[3,2-b]pyridin-6-yl)methyl)phenoxy)ethoxy)ethoxy)ethyl)amino)-N-(4-(pyridin-4-yl)phenyl)propenamide] yielded an inhibition at 1 µM (degradation rate at 1 µM) of 50 to 75%. The inhibition at 10 µM (degradation rate at 10 µM) is not below 75%.
For `COC[C@H]1CN[C@H](C)CN1CC(=O)N1CC(C)(C)c2ncc(Cc3cccc(OCCOCCOCCOCCN[C@H](Cc4cccc(F)c4)C(=O)Nc4ccc(-c5ccncc5)cc4)c3)cc21` [Example 52, (R)-2-(3-Fluorobenzyl)-14-(3-((1-(2-((2R,5R)-2-(methoxymethyl)-5-methylpiperazin-1-yl)acetyl)-3,3-dimethyl-2,3-dihydro-1H-pyrrolo[3,2-b]pyridin-6-yl)methyl)phenoxy)-N-(4-(pyridin-4-yl)phenyl)-6,9,12-trioxa-3-azatetradecanamide], in that order: 25 to 50% and 50 to 75%.
For `COC[C@H]1CN[C@H](C)CN1CC(=O)N1CC(C)(C)c2ncc(Cc3cccc(OCCOCCOCCOCCOCCN[C@H](Cc4cccc(F)c4)C(=O)Nc4ccc(-c5ccncc5)cc4)c3)cc21` [Example 53, (R)-2-(3-Fluorobenzyl)-17-(3-((1-(2-((2R,5R)-2-(methoxymethyl)-5-methylpiperazin-1-yl)acetyl)-3,3-dimethyl-2,3-dihydro-1H-pyrrolo[3,2-b]pyridin-6-yl)methyl)phenoxy)-N-(4-(pyridin-4-yl)phenyl)-6,9,12,15-tetraoxa-3-azaheptadecanamide], in that order: less than 25% and 50 to 75%.
On the same counts, the results for `COC[C@H]1CN[C@H](C)CN1CC(=O)N1CC(C)(C)c2ncc(Cc3cccc(OCCOCCOCCOCCOCCOCCN[C@H](Cc4cccc(F)c4)C(=O)Nc4ccc(-c5ccncc5)cc4)c3)cc21` [Example 54, (R)-2-(3-Fluorobenzyl)-20-(3-((1-(2-((2R,5R)-2-(methoxymethyl)-5-methylpiperazin-1-yl)acetyl)-3,3-dimethyl-2,3-dihydro-1H-pyrrolo[3,2-b]pyridin-6-yl)methyl)phenoxy)-N-(4-(pyridin-4-yl)phenyl)-6,9,12,15,18-pentaoxa-3-azaicosanamide] are not below 75% and 25 to 50%.
Consider `COC[C@H]1CN[C@H](C)CN1CC(=O)N1CC(C)(C)c2ncc(Cc3cccc(OCCOCCOCCOCCOCCOCCOCCN[C@H](Cc4cccc(F)c4)C(=O)Nc4ccc(-c5ccncc5)cc4)c3)cc21` [Example 55, (R)-2-(3-Fluorobenzyl)-23-(3-((1-(2-((2R,5R)-2-(methoxymethyl)-5-methylpiperazin-1-yl)acetyl)-3,3-dimethyl-2,3-dihydro-1H-pyrrolo[3,2-b]pyridin-6-yl)methyl)phenoxy)-N-(4-(pyridin-4-yl)phenyl)-6,9,12,15,18,21-hexaoxa-3-azatricosanamide], for which the inhibition at 1 µM (degradation rate at 1 µM) was less than 25%. Further, the inhibition at 10 µM (degradation rate at 10 µM) was in the range of 50 to 75%.
`COC[C@H]1CN[C@H](C)CN1CC(=O)N1CC(C)(C)c2ncc(Cc3cccc(OCCOCCNC[C@@H](C(=O)Nc4ccc5cnccc5c4)c4ccccc4)c3)cc21` [Example 57, (S)-N-(Isoquinolin-6-yl)-3-((2-(2-(3-((1-(2-((2R,5R)-2-(methoxymethyl)-5-methylpiperazin-1-yl)acetyl)-3,3-dimethyl-2,3-dihydro-1H-pyrrolo[3,2-b]pyridin-6-yl)methyl)phenoxy)ethoxy)ethyl)amino)-2-phenylpropanamide] displayed an inhibition at 1 µM (degradation rate at 1 µM) of 25 to 50%. Where the note is “degradation rate at 10 µM”, this compound gave an inhibition at 10 µM not below 75%.
On the same counts, the results for `COC[C@H]1CN[C@H](C)CN1CC(=O)N1CC(C)(C)c2ncc(Cc3cccc(OCCOCCOCCNC[C@@H](C(=O)Nc4ccc5cnccc5c4)c4ccccc4)c3)cc21` [Example 58, (S)-N-(Isoquinolin-6-yl)-3-((2-(2-(2-(3-((1-(2-((2R,5R)-2-(methoxymethyl)-5-methylpiperazin-1-yl)acetyl)-3,3-dimethyl-2,3-dihydro-1H-pyrrolo[3,2-b]pyridin-6-yl)methyl)phenoxy)ethoxy)ethoxy)ethyl)amino)-2-phenylpropanamide] are 50 to 75% and not below 75%.
For `COC[C@H]1CN[C@H](C)CN1CC(=O)N1CC(C)(C)c2ncc(Cc3cccc(OCCOCCOCCOCCNC[C@@H](C(=O)Nc4ccc5cnccc5c4)c4ccccc4)c3)cc21` [Example 59, (S)-N-(Isoquinolin-6-yl)-1-(3-((1-(2-((2R,5R)-2-(methoxymethyl)-5-methylpiperazin-1-yl)acetyl)-3,3-dimethyl-2,3-dihydro-1H-pyrrolo[3,2-b]pyridin-6-yl)methyl)phenoxy)-14-phenyl-3,6,9-trioxa-12-azapentadecan-15-amide], in that order: not below 75% and not below 75%.
For `COC[C@H]1CN[C@H](C)CN1CC(=O)N1CC(C)(C)c2ncc(Cc3cccc(OCCOCCOCCOCCOCCNC[C@@H](C(=O)Nc4ccc5cnccc5c4)c4ccccc4)c3)cc21` [Example 60, (S)-N-(Isoquinolin-6-yl)-1-(3-((1-(2-((2R,5R)-2-(methoxymethyl)-5-methylpiperazin-1-yl)acetyl)-3,3-dimethyl-2,3-dihydro-1H-pyrrolo[3,2-b]pyridin-6-yl)methyl)phenoxy)-17-phenyl-3,6,9,12-tetraoxa-15-azaoctadecan-18-amide], in that order: 25 to 50% and not below 75%.
As for `COC[C@H]1CN[C@H](C)CN1CC(=O)N1CC(C)(C)c2ncc(Cc3cccc(OCCOCCOCCOCCOCCOCCNC[C@@H](C(=O)Nc4ccc5cnccc5c4)c4ccccc4)c3)cc21` [Example 61, (S)-N-(Isoquinolin-6-yl)-1-(3-((1-(2-((2R,5R)-2-(methoxymethyl)-5-methylpiperazin-1-yl)acetyl)-3,3-dimethyl-2,3-dihydro-1H-pyrrolo[3,2-b]pyridin-6-yl)methyl)phenoxy)-20-phenyl-3,6,9,12,15-pentaoxa-18-azahenicosan-21-amide], for the setting “degradation rate at 1 µM”, the inhibition at 1 µM fell in the range of 50 to 75%. Moreover, where the note is “degradation rate at 10 µM”, the inhibition at 10 µM is not below 75%.
Compound `COC[C@H]1CN[C@H](C)CN1CC(=O)N1CC(C)(C)c2ncc(Cc3cccc(OCCOCCOCCOCCOCCOCCOCCNC[C@@H](C(=O)Nc4ccc5cnccc5c4)c4ccccc4)c3)cc21` [Example 62, (S)-N-(Isoquinolin-6-yl)-1-(3-((1-(2-((2R,5R)-2-(methoxymethyl)-5-methylpiperazin-1-yl)acetyl)-3,3-dimethyl-2,3-dihydro-1H-pyrrolo[3,2-b]pyridin-6-yl)methyl)phenoxy)-23-phenyl-3,6,9,12,15,18-hexaoxa-21-azatetracosan-24-amide] gave an inhibition at 1 µM (degradation rate at 1 µM) of 25 to 50%. The same compound showed an inhibition at 10 µM (degradation rate at 10 µM) not below 75%.
Take `COC[C@H]1CN[C@H](C)CN1CC(=O)N1CC(C)(C)c2ncc(Cc3cccc(OCCOCCOCCOCCOCCOCCOCCOCCNC[C@@H](C(=O)Nc4ccc5cnccc5c4)c4ccccc4)c3)cc21` [Example 63, (S)-N-(Isoquinolin-6-yl)-1-(3-((1-(2-((2R,5R)-2-(methoxymethyl)-5-methylpiperazin-1-yl)acetyl)-3,3-dimethyl-2,3-dihydro-1H-pyrrolo[3,2-b]pyridin-6-yl)methyl)phenoxy)-26-phenyl-3,6,9,12,15,18,21-heptaoxa-24-azaheptacosan-27-amide]: the inhibition at 1 µM (degradation rate at 1 µM) is less than 25%. Moreover, the inhibition at 10 µM (degradation rate at 10 µM) is 50 to 75%.
In the case of `COC[C@H]1CN[C@H](C)CN1CC(=O)N1CC(C)(C)c2ncc(Cc3ccccc3OCCOCCN[C@H](C)c3ccc(C(=O)Nc4ccncc4)cc3)cc21` [Example 64, 4-((R)-1-((2-(2-(2-((1-(2-((2R,5R)-2-(Methoxymethyl)-5-methylpiperazin-1-yl)acetyl)-3,3-dimethyl-2,3-dihydro-1H-pyrrolo[3,2-b]pyridin-6-yl)methyl)phenoxy)ethoxy)ethyl)amino)ethyl)-N-(pyridin-4-yl)benzamide], the inhibition at 1 µM (degradation rate at 1 µM) was less than 25%. Under “degradation rate at 10 µM”, this compound showed an inhibition at 10 µM of 50 to 75%.
Consider `COC[C@H]1CN[C@H](C)CN1CC(=O)N1CC(C)(C)c2ncc(Cc3ccccc3OCCOCCOCCN[C@H](C)c3ccc(C(=O)Nc4ccncc4)cc3)cc21` [Example 65, 4-((R)-1-((2-(2-(2-(2-((1-(2-((2R,5R)-2-(Methoxymethyl)-5-methylpiperazin-1-yl)acetyl)-3,3-dimethyl-2,3-dihydro-1H-pyrrolo[3,2-b]pyridin-6-yl)methyl)phenoxy)ethoxy)ethoxy)ethyl)amino)ethyl)-N-(pyridin-4-yl)benzamide], for which the “ROCK2 protein degradation rate” value runs as follows: (degradation rate at 1 µM) “D (D < 25%)”; (degradation rate at 10 µM) “B (75% > B ≥ 50%)”.
Compound `COC[C@H]1CN[C@H](C)CN1CC(=O)N1CC(C)(C)c2ncc(Cc3ccccc3OCCOCCOCCOCCOCCN[C@H](C)c3ccc(C(=O)Nc4ccncc4)cc3)cc21` [Example 67, 4-((R)-17-(2-((1-(2-((2R,5R)-2-(Methoxymethyl)-5-methylpiperazin-1-yl)acetyl)-3,3-dimethyl-2,3-dihydro-1H-pyrrolo[3,2-b]pyridin-6-yl)methyl)phenoxy)-6,9,12,15-tetraoxa-3-azaheptadecan-2-yl)-N-(pyridin-4-yl)benzamide] came in with an inhibition at 1 µM (degradation rate at 1 µM) of less than 25%. The same compound yielded an inhibition at 10 µM (degradation rate at 10 µM) of 50 to 75%.
Where the note is “degradation rate at 1 µM”, `COC[C@H]1CN[C@H](C)CN1CC(=O)N1CC(C)(C)c2ncc(Cc3ccccc3OCCOCCOCCOCCOCCOCCN[C@H](C)c3ccc(C(=O)Nc4ccncc4)cc3)cc21` [Example 68, 4-((R)-20-(2-((1-(2-((2R,5R)-2-(Methoxymethyl)-5-methylpiperazin-1-yl)acetyl)-3,3-dimethyl-2,3-dihydro-1H-pyrrolo[3,2-b]pyridin-6-yl)methyl)phenoxy)-6,9,12,15,18-pentaoxa-3-azaicosan-2-yl)-N-(pyridin-4-yl)benzamide] displayed an inhibition at 1 µM not below 75%.
